Measurements published in patent US11564923B2, “Compounds and pharmaceutical compositions thereof for the treatment of inflammatory disorders” (Galapagos NV, priority 2017, dated 2023).

How the values were obtained:
Assay type in all cases: biochemical
[1] = target: T1, Recombinant human JAK2 (catalytic domain, amino acids 808-1132) (Homo sapiens, UniProt O60674); test: JAK2 inhibition assay; conditions: read-out: JAK2 potency IC50; also: 0.7 µM ATP
T1 construct: catalytic domain, amino acids 808-1132

[2] = target: Recombinant human JAK3 catalytic domain (amino acids 781-1124) (Homo sapiens, UniProt P52333); test: JAK3 inhibition assay
In short: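 Radiometric kinase reaction run 45 min at 30° C., stopped with phosphoric acid; activity as vehicle cpm minus 10 μM staurosporine cpm.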

[3] = target: T2, Recombinant human JAK1 (catalytic domain, amino acids 866-1154) (Homo sapiens, UniProt P23458); test: JAK1 inhibition assay; conditions: read-out: JAK1 potency IC50
T2 construct: catalytic domain, amino acids 866-1154

[4] = target: T3, Recombinant human TYK2 catalytic domain (amino acids 871-1187) (Homo sapiens, UniProt P29597); test: TYK2 ADPglo kinase assay; also: 12 µM ATP
T3 construct: catalytic domain (amino acids 871-1187)
T3 sequence (P29597 871-1187): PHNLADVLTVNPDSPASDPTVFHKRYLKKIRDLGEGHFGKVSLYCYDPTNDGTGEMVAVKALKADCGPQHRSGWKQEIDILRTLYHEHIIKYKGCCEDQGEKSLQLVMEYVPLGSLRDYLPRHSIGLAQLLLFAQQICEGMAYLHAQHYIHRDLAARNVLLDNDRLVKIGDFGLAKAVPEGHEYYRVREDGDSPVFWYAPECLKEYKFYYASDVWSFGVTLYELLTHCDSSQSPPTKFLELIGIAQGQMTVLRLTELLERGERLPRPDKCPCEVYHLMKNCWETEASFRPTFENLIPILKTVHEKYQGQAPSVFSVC
Description: After 120 min at room temperature, reactions were stopped and the remaining ATP is depleted by adding 5 μL/well of ADP Glo Reagent (Promega, catalog number V912B). After 40 min at room temperature, 10 μl Kinase Detection Reagent (Kinase Detection Substrate (Promega, catalog number V914B) dissolved in Kinase Detection Buffer (Promega, catalog number V913B)) is added to convert ADP to ATP and to measure this newly synthesized ATP in a luciferase/luciferin reaction. Readout is performed after 30 min incubation at room temperature using the Envision. Kinase activity is calculated by subtracting the relative light units (RLU) obtained in the presence of a positive control inhibitor (10 μM staurosporine) from the RLU obtained in the presence of vehicle. The ability of a test compound to inhibit this activity (or percentage inhibition) is determined as:
RLU test compound=RLU determined for sample with test compound present
RLU control=RLU determined for sample with positive control inhibitor
RLU vehicle=RLU determined in the presence of vehicle
Dose dilution series were prepared for the compounds enabling the testing of dose-response effects in the TYK2 assay and the calculation of the IC50 for the compound. Each compound is routinely tested at concentration of 20 μM followed by a 1/5 serial dilution, 10 points in a final concentration of 1% DMSO. […] The data are expressed as the average IC50 from the assays.

Chain of Recombinant human JAK3 catalytic domain (amino acids 781-1124) (P52333 781-1124): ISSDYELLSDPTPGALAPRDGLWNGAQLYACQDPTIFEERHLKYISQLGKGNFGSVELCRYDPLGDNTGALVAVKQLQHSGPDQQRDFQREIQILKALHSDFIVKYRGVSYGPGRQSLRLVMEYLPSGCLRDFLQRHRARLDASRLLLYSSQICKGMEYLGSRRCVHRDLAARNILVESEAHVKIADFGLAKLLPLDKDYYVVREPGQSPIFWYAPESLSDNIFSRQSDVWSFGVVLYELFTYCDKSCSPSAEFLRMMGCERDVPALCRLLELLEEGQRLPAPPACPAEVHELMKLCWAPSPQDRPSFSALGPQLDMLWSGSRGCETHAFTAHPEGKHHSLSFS
T1 sequence (O60674 808-1132): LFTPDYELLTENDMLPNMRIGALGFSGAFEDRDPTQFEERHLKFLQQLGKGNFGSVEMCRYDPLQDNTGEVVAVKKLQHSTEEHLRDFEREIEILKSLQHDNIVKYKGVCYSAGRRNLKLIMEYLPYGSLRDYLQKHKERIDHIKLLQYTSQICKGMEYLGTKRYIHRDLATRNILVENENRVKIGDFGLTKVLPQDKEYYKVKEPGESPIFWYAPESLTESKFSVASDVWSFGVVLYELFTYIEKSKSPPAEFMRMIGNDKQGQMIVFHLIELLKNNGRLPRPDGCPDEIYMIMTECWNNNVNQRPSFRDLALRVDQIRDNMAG
T2 sequence (P23458 866-1154): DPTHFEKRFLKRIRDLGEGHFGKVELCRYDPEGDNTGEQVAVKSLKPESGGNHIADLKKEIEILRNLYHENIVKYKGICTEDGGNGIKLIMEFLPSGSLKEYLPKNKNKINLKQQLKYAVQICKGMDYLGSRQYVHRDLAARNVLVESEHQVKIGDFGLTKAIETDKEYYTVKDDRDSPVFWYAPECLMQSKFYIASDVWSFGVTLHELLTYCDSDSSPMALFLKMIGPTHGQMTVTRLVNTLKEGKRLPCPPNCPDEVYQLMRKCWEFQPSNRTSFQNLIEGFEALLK

Compound	IC50 [1] [nM]	IC50 [2] [nM]	IC50 [3] [nM]	IC50 [4] [nM]
Cc1cc(C(F)(F)F)ncc1Oc1cc(Nc2cc(N)ncn2)c2ncn(C)c2n1 [Compound 1, N-[3-Methyl-5-(4-methyl-6-trifluoromethyl-pyridin-3-yloxy)-3H-imidazo[4,5-b]pyridin-7-yl]-pyrimidine-4,6-diamine]	67.3	1490	153	
Cc1cc(C#N)ncc1Nc1cc(Nc2ccc(C(=O)N(C)C)cn2)c2ncn(C)c2n1 [Compound 67, 6-[[5-[(6-cyano-4-methyl-3-pyridyl)amino]-3-methyl-imidazo[4,5-b]pyridin-7-yl]amino]-N,N-dimethyl-pyridine-3-carboxamide]	28.2	258	51.4	
Cc1cc(C#N)ncc1Oc1cc(Nc2ccc(S(=O)(=O)C(F)F)cc2)c2ncn(C)c2n1 [Compound 68, 5-[7-[4-(difluoromethylsulfonyl)anilino]-3-methyl-imidazo[4,5-b]pyridin-5-yl]oxy-4-methyl-pyridine-2-carbonitrile]	175	2760	113	
Cc1cc(C#N)ncc1Oc1cc(Nc2ccc(S(=O)(=O)C3CC3)cc2)c2ncn(C)c2n1 [Compound 69, 5-[7-(4-cyclopropylsulfonylanilino)-3-methyl-imidazo[4,5-b]pyridin-5-yl]oxy-4-methyl-pyridine-2-carbonitrile]	70	1310	61.3	
Cc1cc(C#N)ncc1N(c1cc(Nc2cc(N)ncn2)c2ncn(C)c2n1)C1CC1 [Compound 88, 5-[[7-[(6-aminopyrimidin-4-yl)amino]-3-methyl-imidazo[4,5-b]pyridin-5-yl]-cyclopropyl-amino]-4-methyl-pyridine-2-carbonitrile]	1.42	189	5.3	0.11
Cn1cnc2c(Nc3ccc(S(C)(=O)=O)cn3)cc(NC(C3CC3)C(F)(F)F)nc21 (centres unmarked) [Compound 92, N5-(1-cyclopropyl-2,2,2-trifluoro-ethyl)-3-methyl-N7-(5-methylsulfonyl-2-pyridyl)imidazo[4,5-b]pyridine-5,7-diamine]	1.17	13	9.6	0.58
CC(C)C(Nc1cc(Nc2cc(N)ncn2)c2ncn(C)c2n1)C(F)(F)F (centres unmarked) [Compound 93, N7-(6-aminopyrimidin-4-yl)-3-methyl-N5-[2-methyl-1-(trifluoromethyl)propyl)imidazo[4,5-b]pyridine-5,7-diamine]	16.4	77.4	57.1	
